Measured values published in paper PMC3073400 (Nature biotechnology, 2010).

Format: in vivo
Conditions: rat brain, 500 μM dopamine alone, no contrast agent, data not shown

Structure (SMILES): NCCc1ccc(O)c(O)c1 [dopamine]
- MRI signal changes on infusion alone: no noticeable signal changes
